Measured values published in patent publication US20190142840A1, “USE OF SIGMA RECEPTOR LIGANDS IN CANCER” (priority 2016, published 2019).
Where two headings read alike, the source gives them in different places.

Columns and labels:
[1] = system: human breast adenocarcinoma MCF7 European cell line; assay: Proliferation assay (MTT or SRB), MCF7 European cell line; assay type: cell-based; conditions: for cytotoxic effect of association with paclitaxel: 10 μM sigma-1 receptor antagonist + 10 nM paclitaxel; for IC50: Homo sapiens, read-out: IC50 (concentration of drug that inhibited 50% of cell proliferation)
Method: (§1) The human breast adenocarcinoma MCF7 European cell line, the human lung carcinoma A549 cell line and the B16-F10 murine melanoma cell line were obtained from the University of Granada Scientific Instrumentation Centre (Spain) and the American Type Culture Collection (ATCC). The cells were cultured in Dulbecco's modified Eagle's medium (DMEM) (Sigma, St. Louis, Mo., USA), supplemented with 10% heat-inactivated fetal bovine serum (FBS) (Lonza, Walkersville, Md., USA) and 1% of antibiotics mixture of penicillin (10,000 U/mL) and streptomycin (10 mg/mL) in an humidified 5% CO2 incubator at 37° C. of temperature. […] The percentage of viability was calculated by utilizing cells without any treatment as control. […] In the MTT protocol, 20 μL of MTT solution in cell culture medium (5 mg/mL) was added to each well. […] The optical density (OD) of converted dye, which is proportional to the number of viable cells, was measured at 570 nm using a Titertek multiscan colorimeter (Flow Laboratories, Irvine, USA). The percentage of surviving cells was calculated as the OD ratio of treated cells to control (untreated) cells (×100). In the SRB protocol, the cells were washed three times with PBS, and 300 μL of 10% trichloroacetic acid was used to fix the cells (20 minutes at 4° C.). Then, the cells were washed three times with distilled water and left to dry before 300 μL of SRB was added. Incubation under mechanical stirring was continued for 20 minutes, and the excess SRB was removed by the addition of a 1% acetic acid solution. Then, the cells were left to dry. […] Sigma-Aldrich) was used for dye resuspension. The optical density (OD) of SRB was measured at 492 nm (Titertek® Multiskan colorimeter; Flow Laboratories Ltd, Oldham, UK) and analyzed with Ascent software version 2.6 (ThermoLab systems, Helsinki, Finland). In all cases, the percentage of surviving cells was calculated as: [OD treated cells/OD control (untreated) cells)]×100. The IC50 values (concentration of drug that inhibited 50% of cell proliferation) were estimated from the inhibition curves.

[2] = system: human lung carcinoma A549 cell line; assay: Proliferation assay (MTT or SRB), A549 cell line; assay type: cell-based; conditions: read-out: IC50 (concentration of drug that inhibited 50% of cell proliferation)
Method: The cells were cultured in Dulbecco's modified Eagle's medium (DMEM) (Sigma, St. Louis, Mo., USA), supplemented with 10% heat-inactivated fetal bovine serum (FBS) (Lonza, Walkersville, Md., USA) and 1% of antibiotics mixture of penicillin (10,000 U/mL) and streptomycin (10 mg/mL) in an humidified 5% CO2 incubator at 37° C. of temperature. Cultured cells were detached with a trypsin-ethylenediamine tetraacetic acid (EDTA) solution (0.25%) and seeded into 24-well plates at a density of 6-15×10^3 cells per well, depending on the cell line.
After incubation for 24 hours under culture conditions, the cells were treated with either paclitaxel (0.1-50 nM) or Example 1 (5-100 μM). […] The percentage of viability was calculated by utilizing cells without any treatment as control.
After an incubation time of 96 hours with drugs, the cytotoxicity of the treatments toward the cell lines was evaluated in triplícate by the 3-(4,5-dimethylthiazol-2-yl)-2,5-diphenyl tetrazolium bromide (MTT) proliferation assay, as previously described (Clares et al., 2013), or with a sulforhodamine B (SRB) protocol, as previously described (Melguizo et al., 2015). […] The optical density (OD) of converted dye, which is proportional to the number of viable cells, was measured at 570 nm using a Titertek multiscan colorimeter (Flow Laboratories, Irvine, USA). […]

[3] = system: B16-F10 murine melanoma cell line; assay: Proliferation assay (MTT or SRB), B16-F10 cell line; assay type: cell-based; conditions: for cytotoxic effect of association with paclitaxel: 10 μM sigma-1 receptor antagonist + 10 nM paclitaxel; for IC50: Mus musculus, read-out: IC50 (concentration of drug that inhibited 50% of cell proliferation)
Method: as §1

[4] = system: patients treated for colorectal cancer; assay: Phase 2 placebo-controlled clinical trial of Example 1 with oxaliplatin (FOLFOX4/mFOLFOX6); assay type: in vivo, human
Method: Thus, the clinical study titled “A proof-concept phase 2, randomized, placebo-controlled, double blind, multicenter clinical trial in two parallel groups to evaluate the efficacy of Example 1 for reducing the incidence and severity of oxaliplatin-induced peripheral neuropathy in patients treated for colorectal cancer” was performed.
The study period was 24 weeks of chemotherapy (one chemo cycle every 2 weeks=12 chemo cycles) plus 6 weeks (follow-up) and having as relevant safety objective to explore the incidence of adverse events by severity, of serious adverse effects, of adverse events leading to Example 1 discontinuation and of adverse events related to Example 1.
Patients received either: • oral daily Example 1, 400 mg/day, during the first 5 days of every chemotherapy cycle, starting the day before the cycle, up to a maximum of 12 cycles (Arm 1), • or oral daily placebo during the first 5 days of every chemotherapy cycle, starting the day before the cycle, up to a maximum of 12 cycles (Arm 2).
Patients were randomized to one of the two above mentioned Arms.
It was expected that chemotherapy cycles were repeated every 14 days for a maximum of 6 months (12 cycles) in the absence of disease progression or unacceptable toxicity.

[5] = molecular target: sigma (σ-2) site (Homo sapiens, UniProt Q5BJF2); conditions: background statement; cited from earlier work
[6] = molecular target: sigma 1 (σ-1) site (Homo sapiens, UniProt Q99720); conditions: background statement; cited from earlier work
[7] = Example 1 400 mg/day oral with oxaliplatin, % apparently of the 27 discontinuations
[8] = Example 1 400 mg/day oral with oxaliplatin, % of n = 62 randomized
[9] = Example 1 400 mg/day oral with oxaliplatin, number of subjects
[10] = patients treated with Example 1 versus placebo

Chain of sigma (σ-2) site (Q5BJF2 whole entry): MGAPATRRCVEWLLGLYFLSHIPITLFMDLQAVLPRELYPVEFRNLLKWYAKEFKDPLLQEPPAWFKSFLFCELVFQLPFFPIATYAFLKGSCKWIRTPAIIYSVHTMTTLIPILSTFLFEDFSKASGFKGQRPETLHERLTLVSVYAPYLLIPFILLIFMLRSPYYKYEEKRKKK
Chain of sigma 1 (σ-1) site (Q99720 whole entry): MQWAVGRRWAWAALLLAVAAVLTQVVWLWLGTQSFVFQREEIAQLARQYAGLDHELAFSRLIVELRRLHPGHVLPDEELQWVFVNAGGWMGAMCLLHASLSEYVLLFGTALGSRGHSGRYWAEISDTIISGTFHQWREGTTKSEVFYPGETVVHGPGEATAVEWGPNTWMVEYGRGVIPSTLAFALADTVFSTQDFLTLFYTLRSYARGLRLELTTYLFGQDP

Compound: Cc1cc(OCCN2CCOCC2)nn1-c1ccc2ccccc2c1 [Example 1, 4-{2-[5-Methyl-1-(naphthalen-2-yl)-1H-pyrazol-3-yloxy]ethyl}morpholine]
- cytotoxic effect of association with paclitaxel ([1]; MCF7 European cell culture): better results than Haloperidol and BD-1063
- cytotoxic effect of association with paclitaxel ([1]; MCF7 European cell culture, listed as Example-1): greater than summative
- IC50 ([1]; MCF7, 96 h): 83 µM
- IC50 ([2]; A549, 96 h): 100 µM
- cytotoxic effect of association with paclitaxel ([3]; B16-F10 cell culture): better results than Haloperidol and BD-1063
- cytotoxic effect of association with paclitaxel ([3]; B16-F10 cell culture, listed as Example-1): greater than summative
- IC50 ([3]; B16-F10, 96 h): 27 µM
- Discontinuations: Physician decision (%) [4, 7]: 11.1%
- Discontinuations: Progressive Disease (%) [4, 7]: 7.4%
- Number of Completers (%) [4, 8]: 56.5%
- Number of discontinuations (%) [4, 8]: 43.5%
- Number of discontinuations ([4]; Example 1 400 mg/day oral with oxaliplatin, n = 62, number of subjects): 27
- Discontinuations: Physician decision [4, 9]: 3
- Discontinuations: Progressive Disease [4, 9]: 2
- Number of Completers ([4]; Example 1 400 mg/day oral, first 5 days of each cycle, with oxaliplatin, n = 62 randomized, number of subjects): 35
- more patients completed the 12 cycles of Oxaliplatin therapy ([4]; Example 1 added to chemotherapy versus placebo): 14.6%
- Oxaliplatin dosing attained [4, 10]: higher Oxaliplatin dosing
- patients discontinued because of cancer progression or physician decision [4, 10]: Less patients
- tolerability of the chemotherapy [4, 10]: tolerated better the chemotherapy

Compound: SKF 10047
- affinity for the sigma (σ-2) site [5]: micromolar affinity
- affinity for the sigma 1 (σ-1) site [6]: nanomolar affinity

Compound: CC(=O)O[C@H]1C(=O)[C@@]2(C)[C@H]([C@H](OC(=O)c3ccccc3)[C@]3(O)C[C@H](OC(=O)[C@H](O)[C@@H](NC(=O)c4ccccc4)c4ccccc4)C(C)=C1C3(C)C)[C@]1(OC(C)=O)CO[C@@H]1C[C@@H]2O [Paclitaxel, reference compound]
- IC50 ([1]; MCF7 European cells, 96 hours incubation): 0.0085 µM
- cytotoxicity ([1]; paclitaxel alone at 10 nM, MCF7 European cell culture): around 35%
- IC50 ([2]; A549, A-549 cells, 96 hours incubation): 0.003 µM
- IC50 ([3]; B16-F10 cells, 96 hours incubation): 0.015 µM
- cytotoxicity ([3]; paclitaxel alone at 10 nM, B16-F10 cell culture): around 35%

Compound: O=C(CCCN1CCC(O)(c2ccc(Cl)cc2)CC1)c1ccc(F)cc1 [haloperidol, reference compound]
- cytotoxic effect of association with paclitaxel ([1]; MCF7 European cell culture): greater than summative
- cytotoxic effect of association with paclitaxel ([3]; B16-F10 cell culture): greater than summative
